Results reported in patent US11458135B2, “Combination of pure 5-HT6 receptor antagonists with acetylcholinesterase inhibitors” (priority 2016, dated 2022).
Structures can show the parent of a compound that is named as a salt.

Tests used:
[1] = tested on: acetylcholine levels in ventral hippocampus of male Wistar rats; test: Acetylcholine modulation in ventral hippocampus (microdialysis), test compound alone; assay type: in vivo, rat
Excerpt: Male Wistar rats (240-300 g body weight) were stereotaxically implanted with a microdialysis guide cannula in ventral hippocampus (AP: −5.2 mm, ML: +5.0 mm, DV: −3.8 mm) under isoflurane anesthesia. […] The rats were allowed to recover individually for four-five days in a round bottom Plexiglas bowl with free access to feed and water.
One day prior to the microdialysis experiment, rats were connected to a dual quartz lined two-channel liquid swivel (Instech, UK) on a counter balance lever arm, which allowed unrestricted movements of the animal. […] On the day of experiment, perfusion rate was changed to 1.2 μL/min and stabilization period of atleast 2 hours was maintained. […] Dialysate samples were collected for additional period of 6 h using CMA/170 refrigerated fraction collector.
All microdialysis data were plotted as percent change from mean dialysate basal concentrations with 100% defined as the average of five predose values. The AUC was calculated by trapezoidal rule using WinNonlin® (5.0.1 version, Pharsight Corp. CA). The statistical significance between the mean AUC values of treatment group with vehicle was calculated using Dunnett's multiple comparison test. For each treatment group, the percent increase in acetylcholine levels was compared to the vehicle group using two-way analysis of variance (time and treatment), followed by Bonferroni post test. […]

[2] = Rodent pharmacokinetic study for assessment of drug interaction; details: compound 1 3 mg/kg, p.o., donepezil 1 mg/kg, s.c.; male Wistar rats
Experimental: Male Wistar rats (260±50 grams) were used as experimental animals. Animals were housed individually in polypropylene cages and acclimatized for three days prior to study.
Blood was collected through retro orbital plexus under isoflurane anesthesia. Collected blood was transferred into a pre-labeled eppendorf tube containing 10 μL of sodium heparin as an anticoagulant. Blood samples were collected at following time points: 0.33, 0.66, 1, 1.5, 2, 4, 6, 8 and 24 hours post dose. Blood was centrifuged at 4000 rpm for 10 minutes. Plasma was separated and stored frozen at −80 ° C. until analysis. […] The test compounds were quantified in the calibration range around 0.05-100 ng/mL in plasma. Study samples were analyzed using calibration samples in the batch and quality control samples spread across the batch.
Pharmacokinetic parameters Cmax, Tmax and AUClast were calculated by non-compartmental model using Phoenix WinNonlin 6.4.0 version Software package.

[3] = biological target: human recombinant 5-HT2A receptor (Homo sapiens (Human), UniProt P28223); test: Determination of Ki value at 5-HT2A receptor (radioligand binding, [3H]-Ketanserine); details: [3H]-Ketanserine 1.75 nM, average of three independent experiments
Excerpt: The reaction was terminated by rapid vacuum filtration onto the glass fiber filters.

[4] = tested on: acetylcholine levels in ventral hippocampus of male Wistar rats; test: Acetylcholine modulation in ventral hippocampus (microdialysis), combination treatment; assay type: in vivo, rat; details: s.c. alone
Excerpt: However, there were minor modifications in the microdialysis experiment.
After surgical recovery of 4-5 days, male Wistar rats were connected to dual quartz lined two-channel liquid swivel (Instech, UK) on a counter balance lever arm, which allowed unrestricted movements of the animal. Sixteen hours before start of study, a pre-equilibrated microdialysis probe (4 mm dialysis membrane) was inserted into the ventral hippocampus through the guide cannula. On the day of study, the probe was perfused with aCSF at a flow rate of 1.5 μL/min and a stabilization period of 2 h was maintained. […] Dialysates were stored below −50° C. prior to analysis.
All microdialysis data for acetylcholine was plotted as percent change from mean dialysate basal concentrations with 100% defined as the average of five pre-dose values. […] Statistical significance was considered at a p value less than 0.05. Incorrect probe placement was considered as criteria to reject the data from animal.

[5] = tested on: theta power in dorsal hippocampus of anesthetized male Wistar rats; test: Evoked theta modulation in dorsal hippocampus of anesthetized male Wistar rats; assay type: in vivo, rat; details: donepezil 0.3 mg/kg, i.v. alone
Experimental: Additionally one electrode was implanted into the cerebellum which served as a reference. Hippocampal θ rhythm was evoked via a 6-s electrical stimulation train (20-160 μA, 0.3-ms pulse duration, 250 Hz) delivered to the NPO at a rate of 0.01 trains/s with a Grass S88 stimulator and PSIU6 stimulus isolation unit (Grass Medical Instruments, Quincy, Mass.). EEG was recorded at a rate of 1000 Hz using Ponemah (Version 5.2) software and stored for off-line analysis using NeuroScore™ (Version 3.0). Baseline amplitude level was achieved by using the current required to elicit θ rhythm to 50% of the maximal amplitude under control conditions.
Power in the θ rhythm frequency in the stimulation period during the 30 min baseline period was calculated and the percent changes in these measures post treatment were calculated. […] Statistical significance was considered at a p value less than 0.05.

COc1ccc2c(c1)c(CN1CCN(C)CC1)cn2S(=O)(=O)c1ccccc1Br [Compound 1, 1-[(2-Bromophenyl)sulfonyl]-5-methoxy-3-[(4-methyl-1-piperazinyl)methyl]-1H-indole dimesylate monohydrate]
increase in hippocampal acetylcholine levels ([1]; 3 mg/kg, p.o., ventral hippocampus, male Wistar rats): about 172% | Area under the curve value of acetylcholine change vs vehicle treatment ([1]; compound 1 p.o., FIG. 2): significantly higher | difference in plasma exposures administered alone or in combination [2]: No significant difference

COc1ccc2c(c1)c(CN1CCN(C)CC1)cn2S(=O)(=O)c1ccc(F)cc1 [Compound 2, 1-[(4-Fluorophenyl)sulfonyl]-5-methoxy-3-[(4-methyl-1-piperazinyl)methyl]-1H-indole dihydrochloride]
Ki [3]: > 10 µM

COc1cc2c(cc1OC)C(=O)C(CC1CCN(Cc3ccccc3)CC1)C2 (stereo not shown) [Donepezil]
maximum hippocampal acetylcholine levels ([4]; donepezil 1 mg/kg): 703±134 % of basal levels | hippocampal theta power [5]: moderate increase

CCN(C)C(=O)Oc1cccc([C@H](C)N(C)C)c1 [rivastigmine, Rivastigmine]
increase in hippocampal acetylcholine level ([4]; rivastigmine 0.5 mg/kg): about 3 fold
